Experimental data reported in ChEMBL document CHEMBL1201862, “PubChem BioAssay data set” (2004).
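Grown in 96-well plates, cells were treated for 48 hours with each compound at five concentrations. Insufficient inhibition: endpoint recorded as highest concentration tested. The concentration for 50% growth inhibition is given as GI50.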 Calls of active or inactive are those of the source. Cut-off read from the data, not from the text of the source: active = GI50 up to about 1.1 µM and inactive = higher.

How the values were obtained:
Test in all cases: growth of human tumour cells (NCI), 48 h
786-0 = system: 786-0
A498 = system: A498
A549 = system: A549
HCT-15 = system: HCT-15
HL-60 = system: HL-60
HT-29 = system: HT-29
K562 = system: K562
MDA-MB-435 = system: MDA-MB-435
MDA-N = system: MDA-N
Malme-3M = system: Malme-3M
NCI-H226 = system: NCI-H226
NCI-H23 = system: NCI-H23
NCI-H460 = system: NCI-H460
NCI-H522 = system: NCI-H522
OVCAR-3 = system: OVCAR-3
OVCAR-8 = system: OVCAR-8
PC-3 = system: PC-3
SF-295 = system: SF-295
SK-MEL-28 = system: SK-MEL-28
UACC-62 = system: UACC-62

Compound	GI50 (786-0)	GI50 (A498)	GI50 (A549)	GI50 (HCT-15)	GI50 (HL-60)	GI50 (HT-29)	GI50 (K562)	GI50 (MDA-MB-435)	GI50 (MDA-N)	GI50 (Malme-3M)	GI50 (NCI-H226)	GI50 (NCI-H23)	GI50 (NCI-H460)	GI50 (NCI-H522)	GI50 (OVCAR-3)	GI50 (OVCAR-8)	GI50 (PC-3)	GI50 (SF-295)	GI50 (SK-MEL-28)	GI50 (UACC-62)
CC(C)OC(=O)c1ccc(NCc2cc(O)ccc2O)cc1	2.84 µM (inactive)	22.5 µM (inactive)	7.48 µM (inactive)	2.69 µM	0.462 µM (active)	13.7 µM (inactive)	0.946 µM (active)	2.06 µM (inactive)	2.52 µM (inactive)	2.16 µM (inactive)	3.21 µM (inactive)	4.36 µM (inactive)	11.1 µM (inactive)	0.21 µM (active)	1.47 µM (inactive)	2.51 µM (inactive)	1.8 µM (inactive)	6.3 µM (inactive)	8 µM (inactive)	10.6 µM (inactive)
O=C1CC(c2ccccc2)NCCCCN2CC(CN1)C(C(O)c1ccccc1)C2=O (stereo not drawn)	> 100 µM (inactive)	> 100 µM (inactive)	> 100 µM (inactive)	> 100 µM	> 100 µM (inactive)	> 100 µM (inactive)		> 100 µM (inactive)	> 100 µM (inactive)	> 100 µM (inactive)	> 100 µM (inactive)	> 100 µM (inactive)	> 100 µM (inactive)	> 100 µM (inactive)	> 100 µM (inactive)	> 100 µM (inactive)	> 100 µM (inactive)	> 100 µM (inactive)	> 100 µM (inactive)	> 100 µM (inactive)
CCOC(=O)C(=CNc1ccc(N(C2=NCC(C)S2)c2ccc(F)c(Cl)c2)cc1)C(=O)OCC (stereo not drawn)	16.2 µM (inactive)	21.9 µM (inactive)	27 µM (inactive)	18.8 µM	24.7 µM (inactive)	18.1 µM (inactive)	44.1 µM (inactive)	24.1 µM (inactive)	21.2 µM (inactive)	20.8 µM (inactive)	18.1 µM (inactive)	17.5 µM (inactive)	23.6 µM (inactive)	15.7 µM (inactive)	20.9 µM (inactive)	18.8 µM (inactive)	22.4 µM (inactive)	25.4 µM (inactive)	18.7 µM (inactive)	
Cc1cccc2c1CC(C1OC(=O)c3c(C)cccc31)C2=O (stereo not drawn)	> 100 µM (inactive)	> 100 µM (inactive)	> 100 µM (inactive)	> 100 µM	> 100 µM (inactive)	> 100 µM (inactive)	> 100 µM (inactive)	> 100 µM (inactive)	> 100 µM (inactive)	> 100 µM (inactive)	> 100 µM (inactive)	> 100 µM (inactive)	> 100 µM (inactive)	15.7 µM (inactive)	> 100 µM (inactive)	> 100 µM (inactive)	> 100 µM (inactive)	> 100 µM (inactive)	> 100 µM (inactive)	> 100 µM (inactive)
c1csc(-c2ccc(-c3ccsc3)s2)c1	> 100 µM (inactive)	> 100 µM (inactive)	> 100 µM (inactive)	> 100 µM	> 100 µM (inactive)	> 100 µM (inactive)	> 100 µM (inactive)	> 100 µM (inactive)	> 100 µM (inactive)	> 100 µM (inactive)	> 75.5 µM (inactive)	> 100 µM (inactive)	> 100 µM (inactive)	> 100 µM (inactive)		> 100 µM (inactive)	97.5 µM (inactive)	> 100 µM (inactive)	> 100 µM (inactive)	> 100 µM (inactive)
COc1ccc(/C=N/NC(=S)Nc2cc(C)ccc2OC)cc1	22.7 µM (inactive)	35.2 µM (inactive)	45.1 µM (inactive)	10 µM	20.3 µM (inactive)	10.1 µM (inactive)	0.63 µM (active)	25.6 µM (inactive)	21.1 µM (inactive)	25.8 µM (inactive)		29.8 µM (inactive)		19.3 µM (inactive)	40.2 µM (inactive)	37.6 µM (inactive)	34.4 µM (inactive)	37.4 µM (inactive)	34.8 µM (inactive)	36.1 µM (inactive)
c1ccc2c(CC3NCCN3)cccc2c1	> 100 µM (inactive)	> 100 µM (inactive)	> 100 µM (inactive)	> 100 µM	> 100 µM (inactive)	> 100 µM (inactive)	> 100 µM (inactive)	> 100 µM (inactive)	> 100 µM (inactive)	> 100 µM (inactive)	> 100 µM (inactive)	> 100 µM (inactive)	> 100 µM (inactive)	> 100 µM (inactive)	> 100 µM (inactive)	> 100 µM (inactive)	> 100 µM (inactive)	> 100 µM (inactive)	> 100 µM (inactive)	> 100 µM (inactive)
COc1cc2nn(-c3ccccc3)nc2c2nonc12	91.6 µM (inactive)	> 100 µM (inactive)	> 100 µM (inactive)	> 100 µM	> 100 µM (inactive)	> 100 µM (inactive)	> 100 µM (inactive)	> 100 µM (inactive)	> 100 µM (inactive)	> 100 µM (inactive)	> 100 µM (inactive)	> 100 µM (inactive)	> 100 µM (inactive)	> 100 µM (inactive)	> 100 µM (inactive)		> 100 µM (inactive)	> 100 µM (inactive)	> 100 µM (inactive)	> 100 µM (inactive)
Nc1ncnc2c1ncn2C1OC(COP(=O)(O)CP(=O)(O)O)C(O)C1O (stereo not drawn)	> 100 µM (inactive)	> 100 µM (inactive)	> 100 µM (inactive)	> 100 µM	> 100 µM (inactive)	> 100 µM (inactive)	> 100 µM (inactive)	> 100 µM (inactive)	> 100 µM (inactive)	> 100 µM (inactive)	> 100 µM (inactive)	> 100 µM (inactive)		> 100 µM (inactive)		> 100 µM (inactive)	> 100 µM (inactive)	> 100 µM (inactive)	> 100 µM (inactive)	> 100 µM (inactive)
CSc1ccc(/C=C2\N=C(c3ccccc3)N(c3nc4ccc(Sc5ccccc5)cc4[nH]3)C2=O)cc1	13.9 µM (inactive)	18.2 µM (inactive)	35.5 µM (inactive)	18.2 µM	14.2 µM (inactive)	17.5 µM (inactive)	14 µM (inactive)	5.28 µM (inactive)	3.37 µM (inactive)	16.6 µM (inactive)		26.3 µM (inactive)	19.1 µM (inactive)	15.9 µM (inactive)	2.01 µM (inactive)	28.2 µM (inactive)	21.8 µM (inactive)	14.3 µM (inactive)	18.9 µM (inactive)	14.2 µM (inactive)
CC1(C)OCC(CO)(Nc2nc(N3CC3)nc(N3CC3)n2)CO1	3.88 µM (inactive)	10.2 µM (inactive)	4.05 µM (inactive)	15.2 µM	0.69 µM (active)	13.9 µM (inactive)	12.7 µM (inactive)	19.5 µM (inactive)	13.3 µM (inactive)	16.9 µM (inactive)	8.13 µM (inactive)	4.12 µM (inactive)	0.38 µM (active)	13.2 µM (inactive)	20.4 µM (inactive)	11.3 µM (inactive)	17.9 µM (inactive)	2.96 µM (inactive)	19.5 µM (inactive)	3.15 µM (inactive)
CC(C)C[C@H](NC(=O)CCc1ccccc1)B(O)O	12.3 µM (inactive)	3.19 µM (inactive)	35.4 µM (inactive)	17.3 µM	2.15 µM (inactive)	2.85 µM (inactive)	17.6 µM (inactive)	2.67 µM (inactive)	2.49 µM (inactive)	11.7 µM (inactive)	1.62 µM (inactive)	16.5 µM (inactive)	19 µM (inactive)	11.7 µM (inactive)	3.63 µM (inactive)	19.7 µM (inactive)	37.2 µM (inactive)	12 µM (inactive)	11 µM (inactive)	14.8 µM (inactive)
c1cc2c(cc1C1=NCCN1)c1cc(C3=NCCN3)ccc1n2CC1CCCCC1	19.4 µM (inactive)	> 100 µM (inactive)	19.1 µM (inactive)	> 100 µM	14.3 µM (inactive)	11.5 µM (inactive)	14.8 µM (inactive)	18 µM (inactive)	23.6 µM (inactive)	8.11 µM (inactive)	12.3 µM (inactive)	17.1 µM (inactive)	14.7 µM (inactive)	4.94 µM (inactive)	21.2 µM (inactive)	25.4 µM (inactive)	21.5 µM (inactive)	32.1 µM (inactive)	10.4 µM (inactive)	
COc1cccc(-c2c(C#N)c(N)nc3c2CCS(=O)(=O)c2ccc(C)cc2-3)c1	61.7 µM (inactive)	> 100 µM (inactive)	> 100 µM (inactive)	> 100 µM	> 100 µM (inactive)	> 100 µM (inactive)	> 100 µM (inactive)	> 100 µM (inactive)	> 100 µM (inactive)	68.1 µM (inactive)	> 100 µM (inactive)	> 100 µM (inactive)	> 100 µM (inactive)	> 100 µM (inactive)	> 100 µM (inactive)	43.8 µM (inactive)	89.1 µM (inactive)		> 100 µM (inactive)	> 100 µM (inactive)
O=C1/C(=C/C=C/c2ccccc2)N=C(c2ccccc2)N1c1ccc(S(=O)(=O)Nc2nccs2)cc1	34.8 µM (inactive)	32.1 µM (inactive)	31.8 µM (inactive)	24.4 µM	46.1 µM (inactive)	23 µM (inactive)	40.2 µM (inactive)	28.2 µM (inactive)	27.7 µM (inactive)	32.7 µM (inactive)	20 µM (inactive)	21.3 µM (inactive)	25.8 µM (inactive)	14.3 µM (inactive)	21.1 µM (inactive)	29.3 µM (inactive)	36.4 µM (inactive)	33.5 µM (inactive)		18.2 µM (inactive)
